Assay [1] relates to HEK293. Nature of the assay: cytotoxicity IC50 (ATP content, uninfected cells); higher = less cytotoxic. The conditions noted are these: infection: none.
The subject of assay [2] is HEK293. Nature of the assay: maximal inhibition of ZIKV NS1 production (% inhibition); higher = stronger antiviral effect. On the procedure:
(§1)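 HEK293 cells in 1536-well plates were pre-treated with compound for 1 h, infected with ZIKV (MOI 1) for 24 h, and NS1 antigen (intra- plus extracellular) was measured by TR-FRET. Confirmation used 11-point 1:3 dilutions, and IC50 and maximal inhibition were fitted in GraphPad Prism.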

Assay [3] concerns HEK293. Nature of the assay: IC50 for inhibition of ZIKV NS1 production. On the procedure: as §1

Turning to `CC(=O)[C@]1(O)Cc2c(O)c3c(c(O)c2[C@@H](O[C@H]2C[C@H](N)[C@H](O)[C@H](C)O2)C1)C(=O)c1ccccc1C3=O`, the “cytotoxicity IC50” value with HEK293 [1] is above 100 µM. Besides, the maximal inhibition in the assay with HEK293 [2] is 86. Further, in the assay with HEK293 [3], the IC50 is 0.17 µM.
With `CC[C@@]1(O)C(=O)OCc2c1cc1n(c2=O)Cc2cc3ccccc3nc2-1`, in the assay on HEK293 [1], the “cytotoxicity IC50” value was above 100 µM. This compound registered a maximal inhibition with HEK293 [2] of 82. For the same compound, the IC50 in the assay with HEK293 [3] came out at 0.026 µM.
Turning to `N=C(N)NN=C(/C=C/c1ccc([N+](=O)[O-])o1)/C=C/c1ccc([N+](=O)[O-])o1`, the “cytotoxicity IC50” value in the assay with HEK293 [1] was 3.9 µM. Besides, in the assay on HEK293 [2], the maximal inhibition amounted to 102. The compound further came in with a half-maximal inhibitory concentration (IC50) with HEK293 [3] of 3.9 µM.
As to `C=C1C(=O)[C@]23[C@H](O)[C@H]1CC[C@H]2[C@@]12CO[C@]3(O)[C@@H](O)[C@@H]1C(C)(C)CC[C@@H]2O`, in the assay on HEK293 [1], the “cytotoxicity IC50” value was found to be 40 µM. The compound also registered a maximal inhibition with HEK293 [2] of 108. This compound displayed a concentration for half-maximal inhibition (IC50) with HEK293 [3] of 17 µM.
As to `O=C(c1ccc(Nc2nccc(-c3cc4ccccc4s3)n2)cc1)N1CCC(N2CCCC2)CC1`, in the assay on HEK293 [1], the “cytotoxicity IC50” value was above 100 µM. The maximal inhibition in the assay with HEK293 [2] came out at 100. The IC50 with HEK293 [3] is 16 µM.
The like results for `CCc1nc(N)nc(N)c1-c1ccc(Cl)cc1` were, in that order, 14 µM, 88 and 45 µM.
The like results for `O=C(Nc1ccncc1)C(=O)c1cn(Cc2ccc(Cl)cc2)c2ccccc12` were, in that order, 70 µM, 39 and 1.3 µM.
In the case of `CC[C@]1(O)C[C@@H]2CN(CCc3c([nH]c4ccccc34)[C@@](C(=O)OC)(c3cc4c(cc3OC)N(C)[C@H]3[C@@](O)(C(=O)OC)[C@H](OC(C)=O)[C@]5(CC)C=CCN6CC[C@]43[C@@H]65)C2)C1`, in the assay on HEK293 [1], the “cytotoxicity IC50” value is above 100 µM. Further, the maximal inhibition in the assay on HEK293 [2] was determined as 73. In the assay with HEK293 [3], this compound showed a concentration for half-maximal inhibition (IC50) of 5.6 µM.
On the same counts, the results for `O=C(Nc1ncc(-c2cc(C(F)F)nn2-c2c(Cl)cccc2Cl)s1)C1CC1` are above 100 µM, 92 and 1.2 µM.
On the same counts, the results for `CC[C@@]1([C@@H]2O[C@@H]([C@H]3O[C@@](O)(CO)[C@H](C)C[C@@H]3C)C[C@@H]2C)CC[C@H]([C@]2(C)CC[C@]3(C[C@H](O)[C@@H](C)[C@@H]([C@@H](C)[C@@H](OC)[C@H](C)C(=O)O)O3)O2)O1` are above 100 µM, 103 and 2.8 µM.
With `COc1ccc(-c2ccc3ncc4c(c3c2)n(-c2ccc(N3CCNCC3)c(C(F)(F)F)c2)c(=O)n4C)cn1`, the “cytotoxicity IC50” value with HEK293 [1] is 20 µM. This compound also gave a maximal inhibition with HEK293 [2] of 102. Moreover, in the assay with HEK293 [3], the IC50 worked out at 1.6 µM.
The like results for `CC[C@]1(O)C[C@@H]2CN(CCc3c([nH]c4ccccc34)[C@@](C(=O)OC)(c3cc4c(cc3OC)N(C)[C@H]3[C@@](O)(C(N)=O)[C@H](O)[C@]5(CC)C=CCN6CC[C@]43[C@@H]65)C2)C1` were, in that order, above 100 µM, 66 and 0.66 µM.
On the same counts, the results for `CC(C)COCC(CN(Cc1ccccc1)c1ccccc1)N1CCCC1` (stereo not drawn) are above 100 µM, 55 and 43 µM.
The like results for `Cc1[nH]nc2ccc(-c3cncc(OC[C@@H](N)Cc4ccccc4)c3)cc12` were, in that order, 0.36 µM, 97 and 5.1 µM.
Consider `Oc1c(Cl)cc(Cl)c2cccnc12`, for which, in the assay on HEK293 [1], the “cytotoxicity IC50” value amounted to 16 µM. Moreover, the maximal inhibition in the assay on HEK293 [2] came to 93. Further, the half-inhibitory concentration (IC50) in the assay on HEK293 [3] came out at 46 µM.
As for `CC(=O)O[C@H]1C(=O)[C@@]2(C)[C@H]([C@H](OC(=O)c3ccccc3)[C@]3(O)C[C@H](OC(=O)[C@H](O)[C@@H](NC(=O)c4ccccc4)c4ccccc4)C(C)=C1C3(C)C)[C@]1(OC(C)=O)CO[C@@H]1C[C@@H]2O`, the “cytotoxicity IC50” value in the assay on HEK293 [1] was above 100 µM. This compound also registered a maximal inhibition in the assay on HEK293 [2] of 38. The 50% inhibitory concentration (IC50) with HEK293 [3] was determined as 0.089 µM.
On the same counts, the results for `COc1cc([C@@H]2c3cc4c(cc3[C@@H](O[C@@H]3O[C@@H]5CO[C@@H](c6cccs6)O[C@H]5[C@H](O)[C@H]3O)[C@H]3COC(=O)[C@H]23)OCO4)cc(OC)c1O` are above 100 µM, 100 and 1.2 µM.
`O=C1CCc2ccc(OCCCCN3CCN(c4cccc(Cl)c4Cl)CC3)cc2N1`: the “cytotoxicity IC50” value with HEK293 [1] came out at 20 µM. In addition, the maximal inhibition in the assay on HEK293 [2] amounted to 102. For the same compound, the IC50 with HEK293 [3] came to 25 µM.
The like results for `COC(=O)[C@]12CCC(C)(C)C[C@H]1[C@H]1C(=O)C=C3[C@@]4(C)C=C(C#N)C(=O)C(C)(C)[C@@H]4CC[C@@]3(C)[C@]1(C)CC2` were, in that order, 2.7 µM, 100 and 0.28 µM.
As for `NCC(=O)Nc1ccc(-n2nc(C(F)(F)F)cc2-c2ccc3c(ccc4ccccc43)c2)cc1`, in the assay on HEK293 [1], the “cytotoxicity IC50” value came out at 10 µM. The maximal inhibition in the assay with HEK293 [2] was 106. The same compound came in with an IC50 with HEK293 [3] of 0.99 µM.
For the compound `Cc1ncc(-c2ccnc(Nc3ccc(S(C)(=O)=O)cc3)n2)n1C(C)C`, the “cytotoxicity IC50” value in the assay on HEK293 [1] was above 100 µM. Further, the maximal inhibition in the assay on HEK293 [2] is 99. This compound registered an IC50 in the assay on HEK293 [3] of 9.2 µM.

The record behind these values is the supplement of paper PMC8498969.
